Experimental findings from patent US20260242336A1, “COMPOSITION FOR PREVENTING OR TREATING CANCER DISEASES COMPRISING ARYL-PIPERIDINE DERIVATIVE” (KOREA RESEARCH INSTITUTE OF CHEMICAL TECHNOLOGY, priority 2023, published 2026) are described below.

Counter-ions that a name gives are not always drawn. Some results are limits rather than exact numbers.

One data set concerns the target T1, TNKS-1 (Homo sapiens, UniProt O95271).
T1 construct: purchased BPS Bioscience 80582
T1 sequence (O95271 1-1327): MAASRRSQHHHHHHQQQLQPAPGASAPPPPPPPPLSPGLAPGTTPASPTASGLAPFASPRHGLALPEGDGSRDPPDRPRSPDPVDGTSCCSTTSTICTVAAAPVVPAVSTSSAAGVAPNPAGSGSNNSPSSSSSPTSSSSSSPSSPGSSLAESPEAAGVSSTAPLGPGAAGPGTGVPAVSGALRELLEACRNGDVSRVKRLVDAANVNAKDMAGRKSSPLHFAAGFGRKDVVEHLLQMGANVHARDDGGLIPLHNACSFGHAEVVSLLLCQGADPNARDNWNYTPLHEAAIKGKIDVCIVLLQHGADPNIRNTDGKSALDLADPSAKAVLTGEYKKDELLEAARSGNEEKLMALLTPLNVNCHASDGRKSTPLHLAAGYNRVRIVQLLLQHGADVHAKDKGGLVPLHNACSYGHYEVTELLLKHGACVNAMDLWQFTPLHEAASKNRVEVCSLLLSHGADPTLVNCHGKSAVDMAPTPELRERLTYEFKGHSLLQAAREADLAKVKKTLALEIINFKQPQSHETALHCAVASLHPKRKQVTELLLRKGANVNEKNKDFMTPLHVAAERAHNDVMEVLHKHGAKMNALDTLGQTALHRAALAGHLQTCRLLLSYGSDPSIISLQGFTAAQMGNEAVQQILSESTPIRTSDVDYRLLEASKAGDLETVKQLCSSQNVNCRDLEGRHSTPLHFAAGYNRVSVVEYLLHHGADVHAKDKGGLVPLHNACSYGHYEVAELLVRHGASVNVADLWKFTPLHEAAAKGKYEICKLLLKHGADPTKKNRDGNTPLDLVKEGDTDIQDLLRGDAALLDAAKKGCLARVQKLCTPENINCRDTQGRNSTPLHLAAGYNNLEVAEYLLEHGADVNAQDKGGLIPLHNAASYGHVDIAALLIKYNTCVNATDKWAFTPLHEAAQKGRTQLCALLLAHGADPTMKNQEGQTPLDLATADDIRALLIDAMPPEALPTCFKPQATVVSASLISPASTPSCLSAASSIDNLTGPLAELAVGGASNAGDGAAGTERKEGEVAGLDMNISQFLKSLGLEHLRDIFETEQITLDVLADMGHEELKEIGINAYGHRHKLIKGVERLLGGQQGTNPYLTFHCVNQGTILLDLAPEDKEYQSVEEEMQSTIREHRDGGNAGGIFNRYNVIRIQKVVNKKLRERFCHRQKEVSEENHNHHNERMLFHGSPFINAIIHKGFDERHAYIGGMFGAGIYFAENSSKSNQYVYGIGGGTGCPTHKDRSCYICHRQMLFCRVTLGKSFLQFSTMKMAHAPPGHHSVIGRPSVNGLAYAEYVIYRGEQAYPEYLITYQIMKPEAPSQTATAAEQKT
Description: TNKS1 Histone Ribosylation Colorimetric Assay Kit (tankyrase-1 colorimetric activity assay). The data set is classed as biochemical. The following applies: for inhibition at 10 µM: read-out: TNKS-1 inhibitory activity (10 μM), 10 μM compound.

A further data set has as its target T2, PARP-1 (Homo sapiens, UniProt P09874).
T2 construct: purchased BPS Bioscience 80580
Description: PARP-1 colorimetric activity assay kit. The data set is classed as biochemical.

For data set [1], the system named is beta-catenin subgenes (AXIN2, CCND1, cMYC, FGF20). Description: Real-time PCR of beta-catenin subgene expression. The data set is classed as cell-based, human. The following applies: COLO320DM, 10 μM, 24 hours. From the text: After RNA extraction, cDNA was synthesized to quantify gene expression via real-time PCR.
Background: In qPCR the cycle at which signal appears reflects the starting amount.

Data set [2] has as its system colon cancer cell line COLO320DM. Description: Cell viability by colony counting after co-treatment with 5-FU. The data set is classed as cell-based. The settings on record: Homo sapiens, COLO 320DM, 240 h, 10 days, read-out: cell viability inhibited when co-treated with 5-FU, compared to the sole treatment. How it is done:
Each cell line was purchased from the American Type Culture Collection (ATCC) and cultured respectively in RPMI 1640 (Roswell Park Memorial Institute 1640) medium supplemented with 10% fetal bovine serum (FBS), 100 μg/ml streptomycin, and 100 units/ml penicillin in the presence of 5% CO2 at 37° C.
Afterwards, the cell viability was identified by counting the number of colonies by staining with 1.5% methylene blue.

Another data set concerns AXIN2 protein. Description: Western blotting of AXIN2 protein in colon cancer cell lines. It is filed as cell-based, human. The following applies: COLO320DM and SW403, 10 μM, 24 hours. The text has this:
(§1) After protein extraction, proteins were quantified through Western blotting (Bio-Rad, USA).
(A western blot detects proteins with antibodies after separation by electrophoresis.)

The test system of data set [3] is activated beta-catenin proteins. Description: Western blotting of activated beta-catenin protein in colon cancer cell lines. The data set is classed as cell-based, human. The settings on record: COLO320DM and SW403, 10 μM, 24 hours.
Description: as §1

The next data set has as its target PARP-2 (Homo sapiens, UniProt Q9UGN5). Description: PARP-2 enzymatic activity inhibition. It is filed as biochemical.
A further data set deals with T3, TNKS-2 (Homo sapiens, UniProt Q9H2K2).
T3 sequence (Q9H2K2 1-1166): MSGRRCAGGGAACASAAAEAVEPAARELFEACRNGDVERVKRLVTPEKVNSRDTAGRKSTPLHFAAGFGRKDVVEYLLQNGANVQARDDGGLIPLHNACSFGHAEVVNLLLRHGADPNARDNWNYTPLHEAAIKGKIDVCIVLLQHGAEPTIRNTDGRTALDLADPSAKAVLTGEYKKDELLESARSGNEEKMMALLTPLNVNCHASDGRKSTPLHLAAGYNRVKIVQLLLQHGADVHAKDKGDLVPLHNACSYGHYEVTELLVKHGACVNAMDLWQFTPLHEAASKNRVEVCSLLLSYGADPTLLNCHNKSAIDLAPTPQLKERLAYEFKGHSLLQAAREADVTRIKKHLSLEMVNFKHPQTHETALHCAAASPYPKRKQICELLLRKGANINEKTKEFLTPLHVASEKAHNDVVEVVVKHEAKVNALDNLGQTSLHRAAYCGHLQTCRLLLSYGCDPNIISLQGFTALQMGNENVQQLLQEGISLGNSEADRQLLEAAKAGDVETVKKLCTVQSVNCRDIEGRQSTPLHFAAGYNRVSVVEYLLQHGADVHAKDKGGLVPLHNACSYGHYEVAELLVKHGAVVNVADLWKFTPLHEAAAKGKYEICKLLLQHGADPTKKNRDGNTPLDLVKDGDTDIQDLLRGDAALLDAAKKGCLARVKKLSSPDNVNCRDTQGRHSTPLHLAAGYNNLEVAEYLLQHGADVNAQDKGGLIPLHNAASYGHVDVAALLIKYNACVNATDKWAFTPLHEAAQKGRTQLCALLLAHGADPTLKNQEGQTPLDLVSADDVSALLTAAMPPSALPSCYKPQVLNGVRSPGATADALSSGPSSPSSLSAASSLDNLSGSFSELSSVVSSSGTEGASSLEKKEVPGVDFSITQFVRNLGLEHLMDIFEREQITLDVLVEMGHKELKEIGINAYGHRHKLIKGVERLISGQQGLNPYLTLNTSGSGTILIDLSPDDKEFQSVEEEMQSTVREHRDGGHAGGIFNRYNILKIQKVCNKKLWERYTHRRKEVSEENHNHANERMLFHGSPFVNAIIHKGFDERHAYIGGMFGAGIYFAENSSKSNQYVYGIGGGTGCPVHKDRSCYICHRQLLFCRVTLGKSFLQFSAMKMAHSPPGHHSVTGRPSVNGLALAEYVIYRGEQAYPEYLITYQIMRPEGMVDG
Description: TNKS-2 enzymatic activity inhibition. It is filed as biochemical.

Data set [4] concerns beta-catenin transcriptional activity. Description: TCF/luciferase assay of beta-catenin transcriptional activity in HEK cells. It is filed as cell-based. The settings on record: Homo sapiens, HEK293, read-out: β-catenin IC50 in HEK cells. How it is done:
To determine whether beta-catenin transcriptional activity is inhibited by the aryl-piperidine derivative compounds, compounds TI-61815 and TI-61910 were treated at various concentrations and examined in HEK cells using the TCF/luciferase assay system.

The test system of data set [5] is colon cancer cell line COLO320DM. Description: Cell viability by colony counting (methylene blue staining). The settings on record: 10 days.

T2 sequence (P09874 whole entry): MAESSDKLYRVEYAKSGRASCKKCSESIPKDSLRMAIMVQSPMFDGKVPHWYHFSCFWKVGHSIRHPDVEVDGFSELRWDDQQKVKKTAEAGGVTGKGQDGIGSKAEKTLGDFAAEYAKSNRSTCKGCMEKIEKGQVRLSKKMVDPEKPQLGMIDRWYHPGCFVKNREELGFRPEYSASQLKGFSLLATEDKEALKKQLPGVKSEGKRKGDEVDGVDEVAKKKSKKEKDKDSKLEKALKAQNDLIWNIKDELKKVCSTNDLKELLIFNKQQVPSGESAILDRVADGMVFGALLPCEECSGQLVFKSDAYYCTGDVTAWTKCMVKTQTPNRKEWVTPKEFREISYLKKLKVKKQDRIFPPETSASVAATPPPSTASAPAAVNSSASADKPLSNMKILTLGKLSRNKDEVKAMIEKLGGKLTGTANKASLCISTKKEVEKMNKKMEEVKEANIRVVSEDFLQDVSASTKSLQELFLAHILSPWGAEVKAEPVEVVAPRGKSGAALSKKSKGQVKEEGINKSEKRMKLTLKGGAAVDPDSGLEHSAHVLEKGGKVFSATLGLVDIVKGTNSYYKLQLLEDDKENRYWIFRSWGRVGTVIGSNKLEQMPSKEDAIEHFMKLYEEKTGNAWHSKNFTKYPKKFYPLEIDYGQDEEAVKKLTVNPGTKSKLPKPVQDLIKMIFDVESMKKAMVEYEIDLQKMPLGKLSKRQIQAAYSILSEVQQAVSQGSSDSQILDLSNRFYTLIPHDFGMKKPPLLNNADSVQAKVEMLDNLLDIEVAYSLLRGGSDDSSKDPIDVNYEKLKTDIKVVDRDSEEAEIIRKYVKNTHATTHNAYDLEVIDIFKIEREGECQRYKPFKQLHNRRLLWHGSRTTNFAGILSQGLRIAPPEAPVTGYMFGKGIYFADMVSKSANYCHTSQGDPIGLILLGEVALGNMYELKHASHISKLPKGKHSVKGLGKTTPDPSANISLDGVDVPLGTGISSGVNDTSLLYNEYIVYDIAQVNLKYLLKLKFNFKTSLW
Chain of PARP-2 (Q9UGN5 whole entry): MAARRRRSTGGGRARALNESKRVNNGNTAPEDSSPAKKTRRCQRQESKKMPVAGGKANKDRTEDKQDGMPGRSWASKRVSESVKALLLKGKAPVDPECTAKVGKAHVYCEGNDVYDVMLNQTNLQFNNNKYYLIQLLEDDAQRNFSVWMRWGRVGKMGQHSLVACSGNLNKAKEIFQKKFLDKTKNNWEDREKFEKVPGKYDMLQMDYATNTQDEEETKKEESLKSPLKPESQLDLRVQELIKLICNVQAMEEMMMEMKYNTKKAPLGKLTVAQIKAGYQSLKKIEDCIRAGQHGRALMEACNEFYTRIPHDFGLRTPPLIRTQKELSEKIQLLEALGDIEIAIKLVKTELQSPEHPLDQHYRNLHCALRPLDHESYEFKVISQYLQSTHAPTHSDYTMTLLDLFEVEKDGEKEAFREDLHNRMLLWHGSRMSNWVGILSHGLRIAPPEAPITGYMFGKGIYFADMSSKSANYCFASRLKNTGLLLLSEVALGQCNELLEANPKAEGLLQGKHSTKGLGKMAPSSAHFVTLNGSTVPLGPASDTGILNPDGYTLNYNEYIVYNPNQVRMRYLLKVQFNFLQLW

For the compound `N#Cc1ccccc1N1CCC(NCC(=O)Nc2nnc3ccccn23)CC1` [TI-62198, N-([1,2,4]triazolo[4,3-a]pyridin-3-yl)-2-((1-(2-cyanophenyl)piperidin-4-yl)amino)acetamide trifluoroacetic acid salt], the inhibition at 10 µM on TNKS-1 amounted to 72 ± 0.3%.

In the case of `N#Cc1ccccc1N1CCC(CCC(=O)Nc2nnc3ccccn23)CC1` [TI-61910, N-([1,2,4]triazolo[4,3-a]pyridin-3-yl)-3-(1-(2-cyanophenyl)piperidin-4-yl)propanamide], the IC50 on PARP-1 is greater than 10000 nM; against PARP-2 it was greater than 10000 nM; at TNKS-2, 4 nM; at TNKS-1, 18 nM; in data set [4] it was 490 nM. Moreover, the “inhibition of enzymatic activity of PARP-1 (in words)” value against PARP-1 (1 μM) is on record as “almost no decrease in the inhibition of enzymatic activity of PARP-1”. For the same compound, the “expression levels of beta-catenin subgenes (AXIN2, CCND1, cMYC, FGF20)” value in data set [1] was “inhibited the expression levels of beta-catenin subgenes”. For the same compound, the cytotoxicity at 2.5 µM in data set [2] (2.5 μM compound + 0.5 μM 5-FU) worked out at 26%. Besides, the cytotoxicity at 5 µM in data set [2] (5 μM compound + 0.5 μM 5-FU) came to 28.3%. Moreover, in data set [2] (10 μM compound + 0.5 μM 5-FU), the cytotoxicity at 10 µM amounted to 35.5%. Moreover, the AXIN2 protein levels result in the data set with AXIN2 protein is on record as “stabilization of AXIN2 protein levels”. Also, in data set [3], the “levels of the activated beta-catenin proteins” value is on record as “inhibited levels of the activated beta-catenin proteins”. At TNKS-1, the inhibition at 10 µM is no less than 95%. In addition, the “cell viability (in words)” value in data set [5] (2.5 μM to 40 μM) is given as “decreased in a concentration-dependent manner”. In [5] (40 μM), this compound came in with a cell viability inhibited of 60.8%.

Consider `O=C(CCC1CCN(c2ccccc2[N+](=O)[O-])CC1)Nc1nnc2ccccn12` [TI-62188, N-([1,2,4]triazolo[4,3-a]pyridin-3-yl)-3-(1-(2-nitrophenyl)piperidin-4-yl)propanamide], for which, at TNKS-1, the inhibition at 10 µM is no less than 95%.

Turning to `N#Cc1ccc(N2CCC(CCC(=O)Nc3nnc4ccccn34)CC2)cc1` [TI-62194], the inhibition at 10 µM on TNKS-1 stood at 100%.

For `O=C(CCC1CCN(c2ccc([N+](=O)[O-])cc2)CC1)Nc1nnc2ccccn12` [TI-62190], at TNKS-1, the inhibition at 10 µM came out at 96 ± 0.2%.

On to `N#Cc1ccccc1N1CCC(CCC(=O)Nc2cnc3ccccn23)CC1` [TI-62122, 3-(1-(2-cyanophenyl)piperidin-4-yl)-N-(imidazo[1,2-a]pyridin-3-yl)propanamid], for which the inhibition at 10 µM at TNKS-1 is 10 ± 0.9%.

On to `N#Cc1ccccc1N1CCC(CC(=O)Nc2cnc3cccnn23)CC1` [TI-61816, 2-(1-(2-cyanophenyl)piperidin-4-yl)-N-(imidazo[1,2-b]pyridazin-3-yl)acetamide], for which the inhibition at 10 µM at TNKS-1 amounted to 5 ± 1.2%.

For the compound `CC(C)(C)OC(=O)N(CC(=O)Nc1nnc2ccccn12)C1CCN(c2ccccc2C#N)CC1` [TI-62197, tert-Butyl(2-([1,2,4]triazolo[4,3-a]pyridin-3-ylamino)-2-oxoethyl)(1-(2-cyanophenyl)piperidin-4-yl) carbamate], the inhibition at 10 µM on TNKS-1 amounted to 3 ± 0.9%.

Consider `N#Cc1ccccc1N1CCC(CCC(=O)Nc2cnc3cccnn23)CC1` [TI-62121, 3-(1-(2-cyanophenyl)piperidin-4-yl)-N-(imidazo[1,2-b]pyridazin-3-yl)propanamide], for which, on TNKS-1, the inhibition at 10 µM was determined as 17 ± 1.5%.

Take `O=C(CCC1CCN(c2cccc([N+](=O)[O-])c2)CC1)Nc1nnc2ccccn12` [TI-62189]: at TNKS-1, the inhibition at 10 µM was determined as 100%.

Consider `N#Cc1ccccc1N1CCC(CCC(=O)Nc2cccc3[nH]ccc23)CC1` [TI-62126], for which the inhibition at 10 µM at TNKS-1 was 1 ± 1.7%.

As for `CN(CC(=O)Nc1nnc2ccccn12)C1CCN(c2ccccc2C#N)CC1` [TI-62199, N-([1,2,4]triazolo[4,3-a]pyridin-3-yl)-2-((1-(2-cyanophenyl)piperidin-4-yl)(methyl)amino)acetamide], the inhibition at 10 µM at TNKS-1 came out at 98 ± 0.1%.

As to `N#Cc1ccccc1N1CCC(CCCC(=O)Nc2nnc3ccccn23)CC1` [TI-62116, N-([1,2,4]triazolo[4,3-a]pyridin-3-yl)-4-(1-(2-cyanophenyl)piperidin-4-yl)butanamide], the inhibition at 10 µM at TNKS-1 was determined as 99 ± 0.1%.

Regarding `O=C(CCC1CCN(c2ccc([N+](=O)[O-])cc2[N+](=O)[O-])CC1)Nc1nnc2ccccn12` [TI-62195], at TNKS-1, the inhibition at 10 µM was no less than 95%.

For orientation: IC50 means the concentration that gives 50% inhibition.
